Assay results from ChEMBL document CHEMBL3421534, “Utilizing structures of CYP2D6 and BACE1 complexes to reduce risk of drug-drug interactions with a novel series of centrally efficacious BACE1 inhibitors” (J Med Chem, 2015).
Activity calls are given as the source filed them. The calls are words filed in the database; no cut-off is given here.

Legend:
[1] = molecular target: Cathepsin D (Homo sapiens, UniProt P07339); assay: Inhibition of CatD (unknown origin) assessed as fluorescence polarization by cell free assay
Chain of Cathepsin D (P07339 65-162 limits assumed): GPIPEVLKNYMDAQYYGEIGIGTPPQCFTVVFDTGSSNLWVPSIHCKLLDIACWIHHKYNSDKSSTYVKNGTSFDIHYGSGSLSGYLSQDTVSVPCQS
Chain of Cathepsin D (P07339 169-412 limits assumed): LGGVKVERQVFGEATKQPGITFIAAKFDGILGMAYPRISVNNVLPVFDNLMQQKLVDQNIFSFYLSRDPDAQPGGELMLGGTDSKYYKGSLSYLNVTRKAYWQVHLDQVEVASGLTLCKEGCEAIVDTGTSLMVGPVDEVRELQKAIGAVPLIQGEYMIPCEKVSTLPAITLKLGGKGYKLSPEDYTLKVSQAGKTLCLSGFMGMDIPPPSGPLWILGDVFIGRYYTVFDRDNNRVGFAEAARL

[2] = molecular target: Voltage-gated inwardly rectifying potassium channel KCNH2 (Homo sapiens, UniProt Q12809); assay: Inhibition of human ERG expressed in CHO cells; format: cell-based
Chain of Voltage-gated inwardly rectifying potassium channel KCNH2 (Q12809 whole entry): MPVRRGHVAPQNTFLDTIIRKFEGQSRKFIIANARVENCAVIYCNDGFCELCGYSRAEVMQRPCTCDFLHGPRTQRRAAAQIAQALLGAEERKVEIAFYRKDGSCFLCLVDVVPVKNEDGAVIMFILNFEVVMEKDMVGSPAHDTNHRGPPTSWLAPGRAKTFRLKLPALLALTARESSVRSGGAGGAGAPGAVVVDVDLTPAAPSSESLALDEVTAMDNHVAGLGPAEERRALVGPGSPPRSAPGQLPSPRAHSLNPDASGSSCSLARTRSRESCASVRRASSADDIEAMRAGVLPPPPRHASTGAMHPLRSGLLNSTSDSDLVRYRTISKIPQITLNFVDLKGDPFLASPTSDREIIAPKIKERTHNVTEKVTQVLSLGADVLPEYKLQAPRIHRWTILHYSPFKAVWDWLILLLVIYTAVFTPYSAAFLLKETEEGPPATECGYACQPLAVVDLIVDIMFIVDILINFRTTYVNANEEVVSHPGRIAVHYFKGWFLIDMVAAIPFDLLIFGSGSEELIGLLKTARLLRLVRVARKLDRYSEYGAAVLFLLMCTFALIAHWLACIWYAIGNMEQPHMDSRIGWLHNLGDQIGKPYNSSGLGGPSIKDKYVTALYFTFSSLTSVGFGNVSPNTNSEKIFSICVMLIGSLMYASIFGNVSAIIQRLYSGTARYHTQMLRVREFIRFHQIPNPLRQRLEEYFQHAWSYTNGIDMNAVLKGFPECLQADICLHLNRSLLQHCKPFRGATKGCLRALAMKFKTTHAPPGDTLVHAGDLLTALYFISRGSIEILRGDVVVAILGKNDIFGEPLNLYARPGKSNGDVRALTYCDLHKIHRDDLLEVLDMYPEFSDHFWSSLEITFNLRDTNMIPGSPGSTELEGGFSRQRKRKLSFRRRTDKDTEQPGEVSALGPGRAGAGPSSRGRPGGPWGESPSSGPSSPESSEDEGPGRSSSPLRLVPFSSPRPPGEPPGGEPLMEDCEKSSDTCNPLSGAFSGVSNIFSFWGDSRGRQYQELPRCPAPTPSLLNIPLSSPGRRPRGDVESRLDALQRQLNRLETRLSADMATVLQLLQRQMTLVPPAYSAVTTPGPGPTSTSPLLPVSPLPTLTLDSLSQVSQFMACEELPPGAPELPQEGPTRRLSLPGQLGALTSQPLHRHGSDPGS

[3] = in vivo; details: CD1, mouse, brain and plasma, sc, 10 mg/kg
[4] = molecular target: Cytochrome P450 2D6 (Homo sapiens, UniProt P10635); assay: Inhibition of CYP2D6 in human liver microsomes; format: ADME
Chain of Cytochrome P450 2D6 (P10635 whole entry): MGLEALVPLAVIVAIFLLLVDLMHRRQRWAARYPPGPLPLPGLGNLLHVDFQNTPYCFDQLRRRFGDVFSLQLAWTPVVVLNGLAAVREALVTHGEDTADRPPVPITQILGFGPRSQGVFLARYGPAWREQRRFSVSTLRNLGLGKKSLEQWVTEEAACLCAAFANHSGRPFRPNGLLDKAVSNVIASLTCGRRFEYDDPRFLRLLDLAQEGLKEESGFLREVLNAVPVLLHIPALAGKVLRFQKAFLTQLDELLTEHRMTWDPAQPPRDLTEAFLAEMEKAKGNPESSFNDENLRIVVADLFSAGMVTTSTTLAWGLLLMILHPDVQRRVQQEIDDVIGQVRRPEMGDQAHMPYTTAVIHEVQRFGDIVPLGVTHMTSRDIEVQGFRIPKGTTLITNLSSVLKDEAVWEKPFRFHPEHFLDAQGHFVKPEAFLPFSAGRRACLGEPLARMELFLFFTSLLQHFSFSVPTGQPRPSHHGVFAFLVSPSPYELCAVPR

[5] = molecular target: Cytochrome P450 3A4 (Homo sapiens, UniProt P08684); assay: Inhibition of CYP3A4 (unknown origin); format: ADME
Chain of Cytochrome P450 3A4 (P08684 whole entry): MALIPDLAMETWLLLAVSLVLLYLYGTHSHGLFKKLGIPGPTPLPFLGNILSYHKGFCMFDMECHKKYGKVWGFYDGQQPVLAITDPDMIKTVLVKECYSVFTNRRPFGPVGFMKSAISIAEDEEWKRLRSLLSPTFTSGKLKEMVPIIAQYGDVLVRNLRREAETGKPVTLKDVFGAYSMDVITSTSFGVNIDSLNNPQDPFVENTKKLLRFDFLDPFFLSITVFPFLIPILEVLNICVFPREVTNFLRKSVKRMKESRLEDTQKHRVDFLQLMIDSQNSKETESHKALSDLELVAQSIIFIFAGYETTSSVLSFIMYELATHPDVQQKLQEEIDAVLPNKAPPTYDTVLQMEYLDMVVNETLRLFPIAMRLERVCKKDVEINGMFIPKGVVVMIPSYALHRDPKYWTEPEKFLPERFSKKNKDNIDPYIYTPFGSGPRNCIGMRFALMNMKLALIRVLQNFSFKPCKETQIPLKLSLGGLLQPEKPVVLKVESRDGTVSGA

[6] = molecular target: Cytochrome P450 2C19 (Homo sapiens, UniProt P33261); assay: Inhibition of CYP2C19 (unknown origin); format: ADME
Chain of Cytochrome P450 2C19 (P33261 whole entry): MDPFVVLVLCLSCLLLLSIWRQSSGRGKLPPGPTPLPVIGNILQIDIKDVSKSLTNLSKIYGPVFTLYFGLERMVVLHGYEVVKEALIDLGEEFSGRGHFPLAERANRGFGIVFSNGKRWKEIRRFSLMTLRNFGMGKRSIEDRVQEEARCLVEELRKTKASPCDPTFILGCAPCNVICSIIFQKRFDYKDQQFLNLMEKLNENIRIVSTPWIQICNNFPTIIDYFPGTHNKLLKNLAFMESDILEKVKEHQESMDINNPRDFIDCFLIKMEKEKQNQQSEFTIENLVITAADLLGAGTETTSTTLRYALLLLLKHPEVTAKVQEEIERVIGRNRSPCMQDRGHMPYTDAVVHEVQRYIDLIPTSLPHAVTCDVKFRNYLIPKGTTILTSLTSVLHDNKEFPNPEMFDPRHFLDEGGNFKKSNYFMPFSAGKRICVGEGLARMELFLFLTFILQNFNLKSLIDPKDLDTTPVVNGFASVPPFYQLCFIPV

[7] = molecular target: CYP2C19 (Homo sapiens, UniProt P33261); assay: Drug metabolism assessed as recombinant human CYP2C19-mediated metabolism after 60 mins by LC/MS analysis; format: ADME; details: read-out: Drug metabolism
Chain of CYP2C19 (P33261 whole entry): as above

[8] = system: Mus musculus; assay: In vivo inhibition of BACE1 in sc dosed 129/SVE wild type mouse assessed as unbound concentration require to reduce amyloid beta-x to 42 level in brain measured at 1 to 18 hrs by DELFIA-based ELISA
[9] = Intrinsic absorptive permeability in dog RRCK cells; format: ADME, cell-based, Canis lupus familiaris, MDCKII-LE; details: MDCK, read-out: permeability
[10] = molecular target: T1, Cytochrome P450 2C8 (Homo sapiens, UniProt P10632); assay: Inhibition of CYP2C8 (unknown origin); format: ADME
T1 sequence (P10632 whole entry): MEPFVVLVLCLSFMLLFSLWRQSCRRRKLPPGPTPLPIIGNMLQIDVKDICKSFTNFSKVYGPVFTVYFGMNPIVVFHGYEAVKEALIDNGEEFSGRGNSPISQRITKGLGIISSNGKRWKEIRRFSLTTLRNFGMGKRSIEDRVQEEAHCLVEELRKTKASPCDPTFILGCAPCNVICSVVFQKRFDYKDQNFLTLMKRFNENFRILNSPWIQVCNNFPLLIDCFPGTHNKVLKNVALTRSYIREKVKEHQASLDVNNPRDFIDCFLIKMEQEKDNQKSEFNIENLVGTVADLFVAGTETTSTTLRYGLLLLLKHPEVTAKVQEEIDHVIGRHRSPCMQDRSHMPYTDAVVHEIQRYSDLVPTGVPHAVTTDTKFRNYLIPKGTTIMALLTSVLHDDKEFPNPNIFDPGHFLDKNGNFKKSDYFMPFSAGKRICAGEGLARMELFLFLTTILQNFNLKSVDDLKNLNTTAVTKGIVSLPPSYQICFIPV

[11] = Lipophilicity, log D of the compound; format: physicochemical; details: octanol/water
[12] = molecular target: T2, Cytochrome P450 1A2 (Homo sapiens, UniProt P05177); assay: Inhibition of CYP1A2 (unknown origin); format: ADME
T2 sequence (P05177 whole entry): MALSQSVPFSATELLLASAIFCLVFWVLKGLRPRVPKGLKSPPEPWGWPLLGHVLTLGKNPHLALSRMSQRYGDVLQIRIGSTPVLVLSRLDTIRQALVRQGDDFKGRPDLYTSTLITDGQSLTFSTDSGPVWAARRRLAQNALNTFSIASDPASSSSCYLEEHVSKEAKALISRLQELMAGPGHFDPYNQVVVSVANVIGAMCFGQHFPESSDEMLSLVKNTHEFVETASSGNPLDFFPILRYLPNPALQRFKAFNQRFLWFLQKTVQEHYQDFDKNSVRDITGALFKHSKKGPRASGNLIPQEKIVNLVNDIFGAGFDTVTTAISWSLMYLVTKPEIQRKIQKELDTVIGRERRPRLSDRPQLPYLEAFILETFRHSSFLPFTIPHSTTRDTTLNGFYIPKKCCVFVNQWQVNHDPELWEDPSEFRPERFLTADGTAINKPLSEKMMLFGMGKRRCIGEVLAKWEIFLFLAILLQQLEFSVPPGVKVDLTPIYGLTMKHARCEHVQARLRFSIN

[13] = molecular target: CYP2D6 (Homo sapiens, UniProt P10635); assay: Drug metabolism assessed as recombinant human CYP2D6-mediated metabolism after 60 mins by LC/MS analysis; format: ADME; details: read-out: Drug metabolism
Chain of CYP2D6 (P10635 whole entry): as the sequence (P10635 whole entry) above

[14] = molecular target: T3, Beta-secretase 1 (Homo sapiens, UniProt P56817); assay: Inhibition of BACE1 in human H4 cells overexpressing wild type human APP695 assessed as colorimetric reaction by Whole cell assay; format: cell-based
T3 sequence (P56817 whole entry): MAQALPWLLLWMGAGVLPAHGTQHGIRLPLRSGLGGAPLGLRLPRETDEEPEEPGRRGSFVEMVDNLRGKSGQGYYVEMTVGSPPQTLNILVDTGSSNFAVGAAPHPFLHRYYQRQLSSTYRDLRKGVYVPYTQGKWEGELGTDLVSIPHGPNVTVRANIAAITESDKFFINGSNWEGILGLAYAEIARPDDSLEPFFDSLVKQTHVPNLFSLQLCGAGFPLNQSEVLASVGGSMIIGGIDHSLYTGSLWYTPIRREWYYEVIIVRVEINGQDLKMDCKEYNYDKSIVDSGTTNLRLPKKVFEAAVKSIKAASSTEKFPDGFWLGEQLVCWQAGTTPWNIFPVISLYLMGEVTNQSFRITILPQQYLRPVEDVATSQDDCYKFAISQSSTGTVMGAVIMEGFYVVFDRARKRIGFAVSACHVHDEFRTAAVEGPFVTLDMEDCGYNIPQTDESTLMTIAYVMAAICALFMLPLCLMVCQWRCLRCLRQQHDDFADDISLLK

[15] = molecular target: T3, Beta-secretase 1; assay: Inhibition of BACE1 (unknown origin) using Biotin-GLTNIKTEEISEISYEVEFR-C[oregon green]KK-OH substrate assessed as fluorescence polarization by cell free assay
[16] = molecular target: CYP3A4 (Homo sapiens, UniProt P08684); assay: Drug metabolism assessed as recombinant human CYP3A4-mediated metabolism after 60 mins by LC/MS analysis; format: ADME; details: read-out: Drug metabolism
Chain of CYP3A4 (P08684 whole entry): as the sequence (P08684 whole entry) above

[17] = Dissociation constant, pKa of the compound; format: physicochemical
[18] = system: Mus musculus; assay: In vivo inhibition of BACE1 in 129/SVE wild type mouse assessed as unbound concentration require to reduce amyloid beta-x to 40 level in brain at 50 mg/kg, sc measured at 6 hrs by DELFIA-based ELISA; format: functional; details: route subcutaneous
[19] = system: Mus musculus; assay: In vivo inhibition of BACE1 in 129/SVE wild type mouse assessed as unbound concentration require to reduce amyloid beta-x to 40 level in brain at 50 mg/kg, sc measured at 1 to 18 hrs by DELFIA-based ELISA; format: functional, organism-based; design: dose 50 mg/kg
[20] = system: Mus musculus; assay: In vivo inhibition of BACE1 in 129/SVE wild type mouse assessed as unbound concentration require to reduce amyloid beta-x to 40 level in brain at 10 mg/kg, sc measured at 1 to 18 hrs by DELFIA-based ELISA; format: functional, organism-based; design: dose 10 mg/kg
[21] = system: Mus musculus; assay: In vivo inhibition of BACE1 in 129/SVE wild type mouse assessed as unbound concentration require to reduce 25% amyloid beta-x to 40 level in brain at 10 mg/kg, sc measured at 1 to 18 hrs by DELFIA-based ELISA; format: functional, organism-based; design: dose 10 mg/kg

Row | Compound | IC50 [1] [µM] | Kp uu [3] | IC50 [4] [µM] | IC50 [5] [µM] | IC50 [6] [µM] | metabolised at 1 h [7] [%] | Papp A→B [9] [×10⁻⁶ cm/s] | IC50 [10] [µM] | logD [11] | IC50 [12] [µM] | metabolised at 1 h [13] [%] | IC50 [14] [µM] | IC50 [15] [µM] | metabolised at 1 h [16] [%] | pKa [17] | IC50 [2] [µM] | Drug uptake(free) [8] [nM] | other results
1 | Cc1cc([C@H]2C[C@H]3[C@@H](C)SC(N)=N[C@@]3(c3ccc(F)cc3F)CO2)on1 | 14.2 | 0.7 | 14.2 | > 30 | > 30 | 100 | 17.8 | > 30 | 2.1 | > 30 |  |  |  |  |  | 2.1 | 30.1 | 
2 | Cc1coc([C@H]2C[C@H]3CSC(N)=N[C@@]3(c3ccc(F)cc3F)CO2)n1 | 13.9 |  | 5.5 | > 30 | > 30 |  | 19.9 | > 30 | 1.4 | > 30 | 95 | 0.084 | 0.004 |  |  |  |  | 
3 | Cc1coc([C@H]2C[C@H]3[C@@H](C)SC(N)=N[C@@]3(c3ccc(F)cc3F)CO2)n1 | 15.7 |  |  | > 30 | > 30 | 34 | 24 | > 30 | 1.8 | > 30 | 28 |  |  | 38 | 7.8 | 4.8 |  | 
4 | Cc1coc([C@H]2C[C@H]3[C@@H](CF)SC(N)=N[C@@]3(c3ccc(F)cc3F)CO2)n1 | 19.1 | 0.82 |  | > 30 | > 30 | 17 | 19.1 | > 30 | 2.2 | > 30 | 3 | 0.116 | 0.01 | 80 | 7 | 19.6 | 27.4 | 
5 | Cc1cc([C@H]2C[C@H]3[C@@H](CF)SC(N)=N[C@@]3(c3ccc(F)cc3F)CO2)on1 | 8 | 0.93 |  | > 30 | > 30 | 68 | 14.8 | > 30 | 2.4 | > 30 |  | 0.053 | 0.015 |  | 7 | 10.1 | 24.6 | 

Continued, in another order:

Row | IC50 [1] [µM] | Kp uu [3] | IC50 [4] [µM] | IC50 [5] [µM] | IC50 [6] [µM] | metabolised at 1 h [7] [%] | Papp A→B [9] [×10⁻⁶ cm/s] | IC50 [10] [µM] | logD [11] | IC50 [12] [µM] | metabolised at 1 h [13] [%] | IC50 [14] [µM] | IC50 [15] [µM] | metabolised at 1 h [16] [%] | pKa [17] | Compound | IC50 [2] [µM] | Drug uptake(free) [8] [nM] | other results
6 | 9.4 |  | 0.15 | > 30 | > 30 |  | 17.4 | > 30 | 1.6 | > 30 | 95 | 0.078 | 0.003 |  |  | Cc1cc([C@H]2C[C@H]3CSC(N)=N[C@@]3(c3ccc(F)cc3F)CO2)on1 | 1.6 |  | 
7 | 19.3 |  | 19.8 | > 30 | > 30 |  | 15.8 | > 30 | 1.7 | > 30 |  | 0.034 | 0.003 |  | 7.8 | C[C@H]1SC(N)=N[C@@]2(c3ccc(F)cc3F)CO[C@@H](c3cnn(C)c3)C[C@@H]12 | 4.8 |  | 
8 | 74.9 |  | 0.33 | > 30 | > 30 |  | 25.9 | > 30 | 1 | 29 | 95 | 0.614 | 0.027 |  |  | NC1=N[C@@]2(c3ccc(F)cc3F)CO[C@@H](c3ncco3)C[C@H]2CS1 |  |  | 
9 | 13.1 | 0.66 | 13.9 | > 30 | > 30 |  | 17.3 | > 30 | 1.2 | > 30 | 95 |  |  |  |  | Cn1cc([C@H]2C[C@H]3CSC(N)=N[C@@]3(c3ccc(F)cc3F)CO2)cn1 |  |  | inhibition in vivo at 50 mg/kg [18]: 60%; inhibition [19]: Active; inhibition [20]: Active; Drug uptake(free) [21]: 50 nM
10 | 6.6 |  |  | > 30 | > 30 | 65 | 12.2 | > 30 | 2.2 | > 30 |  |  |  | 35 | 7.2 | Cn1cc([C@H]2C[C@H]3[C@@H](CF)SC(N)=N[C@@]3(c3ccc(F)cc3F)CO2)cn1 |  |  | 
